Experimental data reported in patent US11708348B2, “Protease inhibitors for treatment of coronavirus infections” (The Scripps Research Institute, priority 2021, dated 2023).
Where two headings read alike, the source gives them in different places.

System: SARS-CoV-2 strain USA-WA1/2020
Assay: microbe, parasite or virus in culture
Format: cell-based
Details: Severe acute respiratory syndrome coronavirus 2, HeLa-ACE2, 24 h, HeLa-ACE2 cells, SARS-CoV-2 infection, 24 h, read-out: EC50, uM (Hela)

SMILES	EC50 (class symbols) [µM]	EC50 [µM]
CC(C)C[C@@H](OC(=O)NC(C)(C)C)C(=O)N1CC2(CC2)C[C@H]1C(=O)N[C@@H](C[C@@H]1CCNC1=O)C(=O)COC(F)(F)F [Compound 328, (R)-4-methyl-1-oxo-1-((S)-6-(((S)-3-oxo-1-((S)-2-oxopyrrolidin-3-yl)-4-(trifluoromethoxy)butan-2-yl)carbamoyl)-5-azaspiro[2.4]heptan-5-yl)pentan-2-yl tert-butylcarbamate]	< 0.05	
CN1CCC[C@H]1C(=O)N1C[C@@H]2CCC[C@@H]2[C@H]1C(=O)N[C@@H](C[C@@H]1CCNC1=O)C(=O)COC(F)(F)F [Compound 440, (1S,3aR,6aS)-2-(methylprolyl)-N-((S)-3-oxo-1-((S)-2-oxopyrrolidin-3-yl)-4-(trifluoromethoxy)butan-2-yl)octahydrocyclo-penta[c]pyrrole-1-carboxamide]		0.5 to 1
O=C(N[C@@H](CC1CCCCC1)C(=O)N[C@@H](C[C@@H]1CCNC1=O)C(=O)COc1c(F)c(F)cc(F)c1F)c1cc2ccccc2[nH]1 [Compound 5, N-((S)-3-cyclohexyl-1-oxo-1-(((S)-3-oxo-l-((S)-2-oxopyrrolidin-3-yl)-4-(2,3,5,6-tetrafluorophenoxy)butan-2-yl)amino)propan-2-yl)-1H-indole-2-carboxamide]	0.05 to 0.2	
CC(C)CC[C@H](NC(=O)C(=O)Nc1ccccc1)C(=O)N[C@@H](C[C@@H]1CCNC1=O)C(=O)COc1c(F)c(F)cc(F)c1F [Compound 36, N1-((S)-5-methyl-1-oxo-1-(((S)-3-oxo-1-((S)-2-oxopyrrolidin-3-yl)-4-(2,3,5,6-tetrafluorophenoxy)butan-2-yl)amino)hexan-2-yl)-N2-phenyloxalamide]	< 0.05	
Cc1ccccc1NC(=O)C(=O)N[C@@H](CC(C)C)C(=O)N[C@@H](C[C@@H]1CCNC1=O)C(=O)COC(F)(F)F [Compound 206, N^1—((S)-4-methyl-1-oxo-1-(((S)-3-oxo-1-((S)-2-oxopyrrolidin-3-yl)-4-(trifluoromethoxy)butan-2-yl)amino)pentan-2-yl)-N^2-(o-tolyl)oxalamide]	< 0.05	
O=C1NCC[C@H]1C[C@H](NC(=O)[C@@H]1[C@H]2CCC[C@H]2CN1C(=O)c1noc2cc(Cl)ccc12)C(=O)COC(F)(F)F [Compound 783, (1S,3aR,6aS)-2-(6-chlorobenzo[d]isoxazole-3-carbonyl)-N-((S)-3-oxo-1-((S)-2-oxopyrrolidin-3-yl)-4-(trifluoromethoxy)butan-2-yl)octahydrocyclopenta[c]pyrrole-1-carboxamide]		< 0.05
CC(C)C[C@@H](O)C(=O)N1C[C@H]2CC[C@H](C2)[C@H]1C(=O)N[C@@H](C[C@@H]1CCNC1=O)C(=O)COC(F)(F)F [Compound 638, (1R,2S,5S)-3-((R)-2-hydroxy-4-methylpentanoyl)-N-((S)-3-oxo-1-((S)-2-oxopyrrolidin-3-yl)-4-(trifluoromethoxy)butan-2-yl)-3-azabicyclo[3.2.1]octane-2-carboxamide]		0.05 to 0.2
O=C(Nc1ccccc1F)C(=O)N[C@@H](CC1CCNC1=O)C(=O)N[C@@H](C[C@@H]1CCNC1=O)C(=O)COC(F)(F)F (stereo partly drawn) [Compound 218, N1-(2-fluorophenyl)-N2-((2S)-1-oxo-1-(((S)-3-oxo-1-((S)-2-oxopyrrolidin-3-yl)-4-(trifluoromethoxy)butan-2-yl)amino)-3-(2-oxopyrrolidin-3-yl)propan-2-yl)oxalamide]	0.5 to 1	
CC(C)C[C@H](NC(=O)C(=O)Nc1ccccc1)C(=O)N[C@@H](C[C@@H]1CCNC1=O)C(=O)COc1c(F)c(F)cc(F)c1F [Compound 10, N1-((S)-4-methyl-1-oxo-1-(((S)-3-oxo-1-((S)-2-oxopyrrolidin-3-yl)-4-(2,3,5,6-tetrafluorophenoxy)butan-2-yl)amino)pentan-2-yl)-N2-phenyloxalamide]	< 0.05	
CC(C)C[C@H](NC(=O)C(=O)N[C@H]1CCCOC1)C(=O)N[C@@H](C[C@@H]1CCNC1=O)C(=O)COc1c(F)c(F)cc(F)c1F [Compound 103, N1-((S)-4-methyl-1-oxo-1-(((S)-3-oxo-1-((S)-2-oxopyrrolidin-3-yl)-4-(2,3,5,6-tetrafluorophenoxy)butan-2-yl)amino)pentan-2-yl)-N2-((S)-tetrahydro-2H-pyran-3-yl)oxalamide]	0.05 to 0.2	
CC[C@@H](OC(F)(F)F)C(=O)N1CC2(CC2)C[C@H]1C(=O)N[C@@H](C[C@@H]1CCNC1=O)C(=O)COC(F)(F)F [Compound 716, (S)-N-((S)-3-oxo-1-((S)-2-oxopyrrolidin-3-yl)-4-(trifluoromethoxy)butan-2-yl)-5-((R)-2-(trifluoromethoxy)butanoyl)-5-azaspiro[2.4]heptane-6-carboxamide]		0.05 to 0.2
O=C(Nc1ccccc1F)C(=O)N[C@@H](CC1CC1)C(=O)N[C@@H](C[C@@H]1CCNC1=O)C(=O)COc1c(F)c(F)cc(F)c1F [Compound 109, N1-((S)-3-cyclopropyl-1-oxo-1-(((S)-3-oxo-1-((S)-2-oxopyrrolidin-3-yl)-4-(2,3,5,6-tetrafluorophenoxy)butan-2-yl)amino)propan-2-yl)-N2-(2-fluorophenyl)oxalamide]	< 0.05	
O=C1NCC[C@H]1C[C@H](NC(=O)[C@@H]1CC2(CC2)CN1C(=O)C(O)c1cccnc1)C(=O)COC(F)(F)F (stereo partly drawn) [Compound 419, (6S)-5-(2-hydroxy-2-(pyridin-3-yl)acetyl)-N-((S)-3-oxo-1-((S)-2-oxopyrrolidin-3-yl)-4-(trifluoromethoxy)butan-2-yl)-5-azaspiro[2.4]heptane-6-carboxamide]		0.5 to 1
O=C1NCC[C@H]1C[C@H](NC(=O)[C@@H]1CC2(CC2)CN1C(=O)C(O)CCC(F)(F)F)C(=O)COC(F)(F)F (stereo partly drawn) [Compound 395, (6S)-N-((S)-3-oxo-1-((S)-2-oxopyrrolidin-3-yl)-4-(trifluoromethoxy)butan-2-yl)-5-(5,5,5-trifluoro-2-hydroxypentanoyl)-5-azaspiro[2.4]heptane-6-carboxamide]	0.05 to 0.2	
COc1cccc2[nH]c(C(=O)N[C@@H](CC(C)C)C(=O)N[C@@H](C[C@@H]3CCNC3=O)C(=O)COc3c(F)c(F)cc(F)c3F)cc12 [Compound 1, 4-methoxy-N-((S)-4-methyl-1-oxo-1-(((S)-3-oxo-1-((S)-2-oxopyrrolidin-3-yl)-4-(2,3,5,6-tetrafluorophenoxy)butan-2-yl)amino)pentan-2-yl)-1H-indole-2-carboxamide]	0.05 to 0.2	
CC(C)(NC(=O)C(=O)N1C[C@@H]2CCC[C@@H]2[C@H]1C(=O)N[C@@H](C[C@@H]1CCNC1=O)C(=O)COC(F)(F)F)C(F)(F)F [Compound 526, (1S,3aR,6aS)-N-((S)-3-oxo-1-((S)-2-oxopyrrolidin-3-yl)-4-(trifluoromethoxy)butan-2-yl)-2-(2-oxo-2-((1,1,1-trifluoro-2-methylpropan-2-yl)amino)acetyl)-octahydrocyclopenta[c]-pyrrole-1-carboxamide]		< 0.05
O=C(Nc1ccccc1)C(=O)N[C@@H](CC1CCCC1)C(=O)N[C@@H](C[C@@H]1CCNC1=O)C(=O)COc1c(F)c(F)cc(F)c1F [Compound 44, N1-((S)-3-cyclopentyl-1-oxo-1-(((S)-3-oxo-1-((S)-2-oxopyrrolidin-3-yl)-4-(2,3,5,6-tetrafluorophenoxy)butan-2-yl)amino)propan-2-yl)-N2-phenyloxalamide]	< 0.05	
Cc1cc(C(=O)N[C@H](C(=O)N[C@@H](CC(C)C)C(=O)N[C@@H](C[C@@H]2CCNC2=O)C(=O)COc2c(F)c(F)cc(F)c2F)C(C)C)no1 [Compound 115, 5-methyl-N-((S)-3-methyl-1-(((S)-4-methyl-1-oxo-1-(((S)-3-oxo-1-((S)-2-oxopyrrolidin-3-yl)-4-(2,3,5,6-tetrafluorophenoxy)butan-2-yl)amino)pentan-2-yl)amino)-1-oxobutan-2-yl)isoxazole-3-carboxamide]	0.2 to 0.5	
CC(C)C[C@H](O)C(=O)N[C@@H](C[C@@H]1CCNC1=O)C(=O)COC(F)(F)F [Compound 719, (S)-2-hydroxy-4-methyl-N-((S)-3-oxo-1-((S)-2-oxopyrrolidin-3-yl)-4-(trifluoromethoxy)butan-2-yl)pentanamide]		0.5 to 1
COc1cccc2[nH]c(C(=O)N[C@@H](CC(C)C)C(=O)N[C@@H](C[C@@H]3CCNC3=O)C(=O)COC(F)(F)F)cc12 [Compound 158, 4-methoxy-N—((S)-4-methyl-1-oxo-1-(((S)-3-oxo-1-((S)-2-oxopyrrolidin-3-yl)-4-(trifluoromethoxy)butan-2-yl)amino)pentan-2-yl)-1H-indole-2-carboxamide]	< 0.05	
CC(C)C[C@H](NC(=O)C(=O)Nc1ccccc1C#N)C(=O)N[C@@H](C[C@@H]1CCNC1=O)C(=O)COc1c(F)c(F)cc(F)c1F [Compound 75, N1-(2-cyanophenyl)-N2-((S)-4-methyl-1-oxo-1-(((S)-3-oxo-1-((S)-2-oxopyrrolidin-3-yl)-4-(2,3,5,6-tetra-fluorophenoxy)butan-2-yl)amino)pentan-2-yl)oxalamide]	0.05 to 0.2	
O=C1NCC[C@H]1C[C@H](NC(=O)[C@@H]1CC2(CC2)CN1C(=O)c1cc(F)cc(F)c1)C(=O)COC(F)(F)F [Compound 699, (S)-5-(3,5-difluorobenzoyl)-N-((S)-3-oxo-l-((S)-2-oxopyrrolidin-3-yl)-4-(trifluoromethoxy)butan-2-yl)-5-azaspiro[2.4]heptane-6-carboxamide]		0.05 to 0.2
CCC(=O)N1CC2(CC2)C[C@H]1C(=O)N[C@@H](C[C@@H]1CCNC1=O)C(=O)COC(F)(F)F [Compound 688, (S)-N-((S)-3-oxo-1-((S)-2-oxopyrrolidin-3-yl)-4-(trifluoromethoxy)butan-2-yl)-5-propionyl-5-azaspiro[2.4]heptane-6-carboxamide]		0.05 to 0.2
O=C1NCC[C@H]1C[C@H](NC(=O)[C@@H]1CC2(CC2)CN1C(=O)CO)C(=O)COC(F)(F)F [Compound 698, (S)-5-(2-hydroxyacetyl)-N-((S)-3-oxo-1-((S)-2-oxopyrrolidin-3-yl)-4-(trifluoromethoxy)butan-2-yl)-5-azaspiro[2.4]heptane-6-carboxamide]		0.05 to 0.2
